# Key:
# [1] = Antiproliferative activity against mouse BA/F3 cells assessed as cell viability after 72 hrs by CellTiter-Glo or CCK-8 assay; format: cell-based, BaF3
# K562 = assay: Antiproliferative activity against human K562 cells assessed as cell viability after 72 hrs by CellTiter-Glo or CCK-8 assay; format: functional; conditions: K562, 72 h
# [2] = Antiproliferative activity against human KU812 cells assessed as cell viability after 72 hrs by CellTiter-Glo or CCK-8 assay; format: functional; conditions: KU812, 72 h
# [3] = Antiproliferative activity against human U937 cells assessed as cell viability after 72 hrs by CellTiter-Glo or CCK-8 assay; format: functional; conditions: U-937, 72 h
# [4] = Antiproliferative activity against human MOLM14 cells assessed as cell viability after 72 hrs by CellTiter-Glo or CCK-8 assay; format: functional; conditions: MOLM-14, 72 h
# MV4-11 = assay: Antiproliferative activity against human MV4-11 cells assessed as cell viability after 72 hrs by CellTiter-Glo or CCK-8 assay; format: functional; conditions: MV4-11, 72 h
# [5] = Antiproliferative activity against human MEG01 cells assessed as cell viability after 72 hrs by CellTiter-Glo or CCK-8 assay; format: functional; conditions: MEG-01, 72 h
# HEL = assay: Antiproliferative activity against human HEL cells assessed as cell viability after 72 hrs by CellTiter-Glo or CCK-8 assay; format: functional
# [6] = Antiproliferative activity against […] CHL cells assessed as cell viability after 72 hrs by CellTiter-Glo or CCK-8 assay; format: cell-based, Cricetulus griseus; conditions: chinese hamster
# [7] = target: Epithelial discoidin domain-containing receptor 1 (Homo sapiens, UniProt Q08345); conditions: BaF3
# Description: Inhibition of TEL-DDR1 (unknown origin) expressed in mouse BA/F3 cells assessed as growth inhibition after 72 hrs by CellTiter-Glo or CCK-8 assay
# [8] = target: T1, Discoidin domain-containing receptor 2 (Homo sapiens) (UniProt Q16832); conditions: BaF3
# T1 sequence (whole entry): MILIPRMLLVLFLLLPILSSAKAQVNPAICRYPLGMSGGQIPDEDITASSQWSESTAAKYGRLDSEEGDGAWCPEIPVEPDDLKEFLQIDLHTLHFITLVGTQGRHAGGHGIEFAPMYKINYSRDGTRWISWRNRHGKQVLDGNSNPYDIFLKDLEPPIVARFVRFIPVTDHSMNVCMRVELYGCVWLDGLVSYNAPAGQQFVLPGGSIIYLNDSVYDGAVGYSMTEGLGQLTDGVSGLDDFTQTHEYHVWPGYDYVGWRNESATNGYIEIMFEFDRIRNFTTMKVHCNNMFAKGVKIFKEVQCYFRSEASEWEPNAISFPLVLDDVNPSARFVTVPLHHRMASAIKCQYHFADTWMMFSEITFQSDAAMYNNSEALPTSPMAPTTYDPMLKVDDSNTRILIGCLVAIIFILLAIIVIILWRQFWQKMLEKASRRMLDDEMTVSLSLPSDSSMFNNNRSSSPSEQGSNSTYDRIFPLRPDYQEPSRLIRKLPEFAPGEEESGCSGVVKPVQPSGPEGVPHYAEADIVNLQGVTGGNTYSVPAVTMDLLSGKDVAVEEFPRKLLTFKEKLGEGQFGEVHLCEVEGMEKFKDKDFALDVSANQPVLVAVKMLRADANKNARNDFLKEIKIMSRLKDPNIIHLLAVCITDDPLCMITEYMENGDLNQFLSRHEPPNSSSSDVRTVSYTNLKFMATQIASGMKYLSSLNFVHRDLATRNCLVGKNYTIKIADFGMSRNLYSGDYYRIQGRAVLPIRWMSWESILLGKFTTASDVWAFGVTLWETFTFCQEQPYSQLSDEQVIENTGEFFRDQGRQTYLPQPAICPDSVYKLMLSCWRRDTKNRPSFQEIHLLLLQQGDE
# Description: Inhibition of TEL-DDR2 (unknown origin) expressed in mouse BA/F3 cells assessed as growth inhibition after 72 hrs by CellTiter-Glo or CCK-8 assay
# [9] = target: Tyrosine-protein kinase Blk (Homo sapiens) (UniProt P51451); conditions: BaF3
# Description: Inhibition of TEL-BLK (unknown origin) expressed in mouse BA/F3 cells assessed as growth inhibition after 72 hrs by CellTiter-Glo or CCK-8 assay
# [10] = target: Tyrosine-protein kinase HCK (Homo sapiens) (UniProt P08631); conditions: BaF3
# Description: Inhibition of TEL-HCK (unknown origin) expressed in mouse BA/F3 cells assessed as growth inhibition after 72 hrs by CellTiter-Glo or CCK-8 assay
# BaF3 [11] = conditions: Homo sapiens
# Description: Inhibition of BCR/ABL p210-E255K mutant (unknown origin) expressed in mouse BA/F3 cells assessed as growth inhibition after 72 hrs by CellTiter-Glo or CCK-8 assay
# BaF3 [12] = conditions: Homo sapiens; remark: listed apart in the source
# Description: Inhibition of BCR/ABL p210-F317I mutant (unknown origin) expressed in mouse BA/F3 cells assessed as growth inhibition after 72 hrs by CellTiter-Glo or CCK-8 assay
# BaF3 [13] = conditions: Homo sapiens; remark: listed apart in the source
# Description: Inhibition of BCR/ABL p210-T315I mutant (unknown origin) expressed in mouse BA/F3 cells assessed as growth inhibition after 72 hrs by CellTiter-Glo or CCK-8 assay
# [14] = target: Proto-oncogene tyrosine-protein kinase Src (Homo sapiens, UniProt P12931); conditions: BaF3
# Description: Inhibition of TEL-SRC (unknown origin) expressed in mouse BA/F3 cells assessed as growth inhibition after 72 hrs by CellTiter-Glo or CCK-8 assay
# [15] = target: Tyrosine-protein kinase Lck (Homo sapiens) (UniProt P06239); conditions: BaF3
# Description: Inhibition of TEL-LCK (unknown origin) expressed in mouse BA/F3 cells assessed as growth inhibition after 72 hrs by CellTiter-Glo or CCK-8 assay
# [16] = target: Transcription factor ETV6/Tyrosine-protein kinase ABL1 (Homo sapiens) (UniProt P00519+P41212); conditions: BaF3
# Description: Inhibition of Tel-ABL (unknown origin) expressed in mouse BA/F3 cells assessed as cell growth inhibition after 72 hrs by CellTiter-Glo or CCK-8 assay
# [17] = target: Bcr/Abl fusion protein (Homo sapiens) (UniProt P00519+P11274); conditions: BaF3
# Sequence of Bcr/Abl fusion protein (Homo sapiens) (P00519 whole entry, looked up, the tested form may be a part): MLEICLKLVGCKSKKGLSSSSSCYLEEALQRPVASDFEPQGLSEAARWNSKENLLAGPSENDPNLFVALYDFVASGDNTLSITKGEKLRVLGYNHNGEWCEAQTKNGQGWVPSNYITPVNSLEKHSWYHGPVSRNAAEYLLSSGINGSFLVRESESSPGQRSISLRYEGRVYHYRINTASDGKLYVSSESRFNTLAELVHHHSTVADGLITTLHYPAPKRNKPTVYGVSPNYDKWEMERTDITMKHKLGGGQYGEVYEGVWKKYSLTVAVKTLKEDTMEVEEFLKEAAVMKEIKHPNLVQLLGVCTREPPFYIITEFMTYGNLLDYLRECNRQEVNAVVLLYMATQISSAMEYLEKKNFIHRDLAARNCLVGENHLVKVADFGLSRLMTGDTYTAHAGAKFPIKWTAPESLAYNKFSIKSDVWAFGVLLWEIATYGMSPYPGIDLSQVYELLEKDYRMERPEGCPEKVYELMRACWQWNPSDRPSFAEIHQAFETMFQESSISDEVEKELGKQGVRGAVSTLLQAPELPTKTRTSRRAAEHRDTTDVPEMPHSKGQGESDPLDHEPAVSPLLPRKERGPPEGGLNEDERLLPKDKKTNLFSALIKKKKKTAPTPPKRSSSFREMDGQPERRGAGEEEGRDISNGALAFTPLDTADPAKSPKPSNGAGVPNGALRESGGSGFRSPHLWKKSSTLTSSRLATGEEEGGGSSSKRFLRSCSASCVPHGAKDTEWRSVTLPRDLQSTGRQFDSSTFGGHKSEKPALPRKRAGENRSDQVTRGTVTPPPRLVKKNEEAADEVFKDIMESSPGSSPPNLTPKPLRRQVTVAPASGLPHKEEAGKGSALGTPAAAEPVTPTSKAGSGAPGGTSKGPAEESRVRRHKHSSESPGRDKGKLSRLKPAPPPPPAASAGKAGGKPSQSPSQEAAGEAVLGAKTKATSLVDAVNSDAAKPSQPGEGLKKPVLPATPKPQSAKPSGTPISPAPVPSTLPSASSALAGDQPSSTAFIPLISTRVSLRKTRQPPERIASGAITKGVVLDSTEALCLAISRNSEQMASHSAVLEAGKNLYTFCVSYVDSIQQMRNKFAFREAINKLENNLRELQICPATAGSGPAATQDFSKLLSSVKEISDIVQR
# Sequence of Bcr/Abl fusion protein (Homo sapiens) (P11274 whole entry, looked up, the tested form may be a part): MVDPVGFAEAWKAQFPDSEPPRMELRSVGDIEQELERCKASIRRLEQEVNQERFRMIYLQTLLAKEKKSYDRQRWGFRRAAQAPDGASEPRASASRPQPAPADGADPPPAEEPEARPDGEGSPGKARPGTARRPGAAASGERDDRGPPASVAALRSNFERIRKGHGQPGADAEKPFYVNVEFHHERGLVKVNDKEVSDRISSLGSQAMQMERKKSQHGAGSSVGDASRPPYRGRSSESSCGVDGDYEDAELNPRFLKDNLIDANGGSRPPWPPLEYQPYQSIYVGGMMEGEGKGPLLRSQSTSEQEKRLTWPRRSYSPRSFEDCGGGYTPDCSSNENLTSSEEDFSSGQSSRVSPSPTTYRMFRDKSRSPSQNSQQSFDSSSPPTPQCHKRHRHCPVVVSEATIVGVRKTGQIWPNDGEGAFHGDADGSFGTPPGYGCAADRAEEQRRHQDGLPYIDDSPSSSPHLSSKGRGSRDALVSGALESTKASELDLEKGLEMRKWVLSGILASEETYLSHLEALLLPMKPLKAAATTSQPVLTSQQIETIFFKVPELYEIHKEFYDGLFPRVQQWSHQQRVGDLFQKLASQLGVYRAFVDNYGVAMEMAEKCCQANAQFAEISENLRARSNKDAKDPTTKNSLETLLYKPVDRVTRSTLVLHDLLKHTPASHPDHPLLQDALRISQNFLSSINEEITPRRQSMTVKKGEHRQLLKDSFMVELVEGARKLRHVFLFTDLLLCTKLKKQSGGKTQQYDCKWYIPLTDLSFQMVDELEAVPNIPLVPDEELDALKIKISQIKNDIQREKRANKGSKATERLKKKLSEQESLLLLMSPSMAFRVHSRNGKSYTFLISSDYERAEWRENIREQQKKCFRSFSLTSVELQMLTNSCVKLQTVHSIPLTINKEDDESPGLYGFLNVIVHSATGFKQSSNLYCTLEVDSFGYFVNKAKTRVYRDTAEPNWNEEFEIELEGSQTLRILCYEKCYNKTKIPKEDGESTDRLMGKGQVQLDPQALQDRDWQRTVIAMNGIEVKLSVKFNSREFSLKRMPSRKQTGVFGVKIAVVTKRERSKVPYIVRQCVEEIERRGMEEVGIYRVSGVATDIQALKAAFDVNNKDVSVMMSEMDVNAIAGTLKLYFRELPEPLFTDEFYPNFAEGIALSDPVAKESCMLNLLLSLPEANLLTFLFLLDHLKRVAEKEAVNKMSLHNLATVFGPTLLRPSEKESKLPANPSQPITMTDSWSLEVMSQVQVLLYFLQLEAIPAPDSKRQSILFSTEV
# Description: Inhibition of BCR/ABL p210 (unknown origin) expressed in mouse BA/F3 cells assessed as growth inhibition after 72 hrs by CellTiter-Glo or CCK-8 assay
# Sequence of Transcription factor ETV6/Tyrosine-protein kinase ABL1 (Homo sapiens) (P00519 whole entry, looked up, the tested form may be a part): as the sequence (P00519 whole entry, looked up, the tested form may be a part) above
# Sequence of Transcription factor ETV6/Tyrosine-protein kinase ABL1 (Homo sapiens) (P41212 whole entry, looked up, the tested form may be a part): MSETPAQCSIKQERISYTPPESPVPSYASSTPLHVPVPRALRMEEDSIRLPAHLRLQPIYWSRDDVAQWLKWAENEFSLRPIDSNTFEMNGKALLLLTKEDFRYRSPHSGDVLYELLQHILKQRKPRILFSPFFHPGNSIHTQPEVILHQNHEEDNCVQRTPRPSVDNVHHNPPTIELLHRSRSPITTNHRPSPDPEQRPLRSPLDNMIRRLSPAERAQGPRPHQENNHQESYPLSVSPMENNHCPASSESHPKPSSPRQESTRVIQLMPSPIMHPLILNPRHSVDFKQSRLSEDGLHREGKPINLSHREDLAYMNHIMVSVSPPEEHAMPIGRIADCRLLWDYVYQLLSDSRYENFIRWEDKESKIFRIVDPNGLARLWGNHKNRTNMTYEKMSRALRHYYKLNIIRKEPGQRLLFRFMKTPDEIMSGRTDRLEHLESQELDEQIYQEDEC
# Sequence of Tyrosine-protein kinase Blk (Homo sapiens) (P51451 2-505 limits assumed): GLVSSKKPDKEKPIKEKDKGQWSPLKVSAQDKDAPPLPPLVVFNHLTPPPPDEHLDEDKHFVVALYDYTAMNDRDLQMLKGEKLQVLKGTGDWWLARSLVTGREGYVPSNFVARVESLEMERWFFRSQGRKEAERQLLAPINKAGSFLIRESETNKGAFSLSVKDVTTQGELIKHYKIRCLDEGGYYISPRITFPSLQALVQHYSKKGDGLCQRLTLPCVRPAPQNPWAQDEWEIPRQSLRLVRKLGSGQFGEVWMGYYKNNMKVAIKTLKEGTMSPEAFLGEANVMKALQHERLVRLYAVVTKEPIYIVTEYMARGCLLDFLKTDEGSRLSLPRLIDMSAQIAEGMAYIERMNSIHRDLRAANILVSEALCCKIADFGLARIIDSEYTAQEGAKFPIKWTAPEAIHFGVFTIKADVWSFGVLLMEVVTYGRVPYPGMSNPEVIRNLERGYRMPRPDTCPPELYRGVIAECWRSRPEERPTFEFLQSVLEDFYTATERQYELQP
# Sequence of Tyrosine-protein kinase HCK (Homo sapiens) (P08631 2-526 limits assumed): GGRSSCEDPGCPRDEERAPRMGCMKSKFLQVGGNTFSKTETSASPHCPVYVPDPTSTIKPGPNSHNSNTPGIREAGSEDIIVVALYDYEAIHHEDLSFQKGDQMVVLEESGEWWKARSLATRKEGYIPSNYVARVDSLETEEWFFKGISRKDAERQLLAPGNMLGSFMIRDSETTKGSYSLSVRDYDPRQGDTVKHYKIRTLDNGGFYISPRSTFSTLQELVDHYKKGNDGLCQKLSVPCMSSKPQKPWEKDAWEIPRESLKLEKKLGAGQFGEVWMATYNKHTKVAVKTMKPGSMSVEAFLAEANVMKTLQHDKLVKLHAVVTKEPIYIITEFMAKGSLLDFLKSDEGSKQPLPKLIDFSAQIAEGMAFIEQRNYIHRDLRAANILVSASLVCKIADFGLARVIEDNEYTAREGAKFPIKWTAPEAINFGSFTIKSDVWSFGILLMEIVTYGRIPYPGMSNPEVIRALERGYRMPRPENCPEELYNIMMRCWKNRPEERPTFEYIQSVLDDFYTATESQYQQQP
Structure (SMILES),GI50 (K562),GI50 (MV4-11),GI50 [7],GI50 [8],GI50 [9],GI50 [10],GI50 (BaF3 [11]),GI50 (BaF3 [12]),GI50 (BaF3 [13]),GI50 [14],GI50 [15],GI50 [16],GI50 [17],GI50 at 72 h [1],GI50 [2],GI50 [3],GI50 [4],GI50 [5],GI50 (HEL),GI50 at 72 h [6]
Cc1ccc(Nc2ncc(C(=O)Nc3cc(NC(=O)c4cccc(C(F)(F)F)c4)ccc3C)cn2)cc1N,0.33 µM,,,,,,,,,,,0.59 µM,0.47 µM,> 10 µM,,,,,,
CNc1nc(Nc2ccc(C)c(N)c2)ncc1C(=O)Nc1cc(NC(=O)c2cc(OC)c(OC)c(OC)c2)ccc1C,0.25 µM,,,,,,,,,,,0.445 µM,0.67 µM,> 10 µM,,,,,,
Cc1ccc(NC(=O)c2cccc(C(F)(F)F)c2)cc1N1Cc2cnc(OC3CCNCC3)nc2N(C)C1=O,0.22 µM,,,,,,,,,,,2.04 µM,2.71 µM,> 10 µM,,,,,,

# The next compounds have a lower GI50 (K562) than those just listed; values first:
GI50 (K562),GI50 (MV4-11),GI50 [7],GI50 [8],GI50 [9],GI50 [10],GI50 (BaF3 [11]),GI50 (BaF3 [12]),GI50 (BaF3 [13]),GI50 [14],GI50 [15],GI50 [16],GI50 [17],Structure (SMILES),GI50 at 72 h [1],GI50 [2],GI50 [3],GI50 [4],GI50 [5],GI50 (HEL),GI50 at 72 h [6]
< 0.0003 µM,3.6 µM,3 µM,3 µM,0.005 µM,0.039 µM,0.017 µM,0.01 µM,9.94 µM,,,,,Cc1nc(Nc2ncc(C(=O)Nc3c(C)cccc3Cl)s2)cc(N2CCN(CCO)CC2)n1 [DASATINIB],> 10 µM,< 0.0003 µM,> 10 µM,2.3 µM,< 0.0003 µM,5.3 µM,0.27 µM
0.14 µM,> 10 µM,,7.7 µM,4.1 µM,9.7 µM,1.93 µM,0.855 µM,> 10 µM,,,,,Cc1ccc(NC(=O)c2ccc(CN3CCN(C)CC3)cc2)cc1Nc1nccc(-c2cccnc2)n1 [IMATINIB],6.7 µM,0.16 µM,> 10 µM,> 10 µM,0.24 µM,5.3 µM,> 10 µM
0.002 µM,> 10 µM,,1.4 µM,1.3 µM,4.1 µM,0.021 µM,0.0546 µM,> 10 µM,0.47 µM,0.87 µM,,,Cc1cn(-c2cc(NC(=O)c3ccc(C)c(Nc4nccc(-c5cccnc5)n4)c3)cc(C(F)(F)F)c2)cn1 [NILOTINIB],2.1 µM,0.001 µM,> 10 µM,> 10 µM,0.016 µM,3.9 µM,4.2 µM
0.023 µM,,,,,,,,,,,0.039 µM,0.046 µM,Cc1ccc(Nc2ncc3c(n2)N(C)C(=O)N(c2cc(NC(=O)c4cccc(-c5ccccc5)c4)ccc2C)C3)cc1N,> 10 µM,,,,,,
0.003 µM,,,,,,,,,,,0.005 µM,0.005 µM,Cc1ccc(Nc2ncc3c(n2)N(C)C(=O)N(c2cc(NC(=O)c4cccc(C(F)(F)F)c4)ccc2C)C3)cc1N,0.44 µM,,,,,,

# — ChEMBL document CHEMBL3779840, “Discovery of 2-((3-Amino-4-methylphenyl)amino)-N-(2-methyl-5-(3-(trifluoromethyl)benzamido)phenyl)-4-(methylamino)pyrimidine-5-carboxamide (CHMFL-ABL-053) as a Potent, Selective, and Orally Available BCR-ABL/SRC/p38 Kinase Inhibitor for Chronic Myeloid Leukemia” (J Med Chem, 2016)
